Test results published in patent publication EP4682144A1, “SOLID FORM OF PYRROLIDONE DERIVATIVE AS GLUCOKINASE ACTIVATOR” (Hua Medicine (Shanghai) Ltd., priority 2023, dated 2024).
Converted amounts (≈) assume the structure as drawn. Structures can show the parent of a compound that is named as a salt. Values belong to the molecule of their own block, whether it stands above or below them.

Key:
[1] = High-temperature and high-humidity stability test of hydrochloride crystal form B; assay type: physicochemical
[2] = Preliminary solubility test in solvents at room temperature; assay type: physicochemical
Experimental: Table 10 Solubility range of the starting material sample at room temperature
The solubility range in the corresponding solvent was calculated based on the mass of the sample and the volume of the added solvent, as shown in Table 28. The data were used as a base to guide the selection of solvent in screening tests. Table 28 Preliminary solubility of crystal form A of the free state at room temperature
The solubility range in the corresponding solvent was calculated based on the mass of the sample and the volume of the added solvent, as shown in Table 35. The data were used as a base to guide the selection of solvent in the screening tests.

[3] = Dynamic vapour sorption (DVS) test; assay type: physicochemical; details: relative humidity of less than or equal to 90%; listed as crystal form B of the hydrochloride
C57BL/6J mice [4] = experiment: Oral glucose tolerance test (OGTT), glucose-lowering effect; assay type: in vivo; details: for blood glucose level at 0 min (pre-glucose): oral, 1 hour after administration, dose-response relationship; for blood glucose values after glucose administration: 60 min, and 120 min
Experimental: (§1) There were 7 groups of mice, with 8 mice in each group. […] Oral glucose tolerance test (OGTT) was performed 1 hour after administration. The blood glucose level in mice was tested before administration (-60 min), before sugar administration (0 min), and at 15 min, 30 min, 60 min, and 120 min after sugar administration. In addition, 40 µl of blood was collected from the tail tip before sugar administration (0 min) and at 15 min after sugar administration to collect the plasma for an insulin level test.
(§2) All data was transferred into an Excel document. The blood glucose results were expressed in mg/dL and expressed as MEAN ± SEM. Differences between multiple groups were analyzed using Dunnett's method in one-way analysis of variance (ANOVA) or two-way analysis of variance (ANOVA) with Graphpad Prism 8 software for comparison, and the differences were considered statistically significant when the P value was less than 0.05.

[5] = Pharmacokinetic study in rats (IV and PO); assay type: in vivo, SD male rats
C57BL/6J mice [6] = experiment: Plasma insulin level test during OGTT; assay type: in vivo
Experimental: as §1, §2

Caco-2 cells = experiment: Caco-2 bi-directional permeability test; details: Caco-2
[7] = Caco-2 bi-directional permeability test; details: human; for recovery at 2 h, 2 µM: Compound A concentration 2.00 µM; for recovery at 2 h, 10 µM: Compound A concentration 10.0 µM
[8] = Simulated metabolic test in human intestine S9; assay type: in vitro ADME
[9] = acetone, 25 °C, organic solvent or mixture, thermodynamic from solid, room temperature
[10] = chcl3, 25 °C, organic solvent or mixture, thermodynamic from solid, CHCl3, room temperature
[11] = C57BL/6J mice, versus vehicle control group
[12] = Caco-2, pH 7.4, Average recovery rate (%) A→B
[13] = Caco-2, pH 7.4, Average recovery rate (%) B→A

SMILES: CC(C)C[C@@H](C(=O)Nc1ccn(C[C@@H](O)COC(=O)c2cccnc2)n1)N1CC(Oc2ccccc2Cl)=CC1=O [Hydrochloride crystal form B]
- Purity (Area%) ([1]; 25 °C/75%RH, Day 2): 99.72 Area%
- Purity (Area%) ([1]; 25 °C/75%RH, Day 5): 99.56 Area%
- Purity (Area%) ([1]; 25 °C/75%RH, Day 9): 99.64 Area%
- Purity (Area%) ([1]; 40°C/75%RH, Day 2): 99.67 Area%
- Purity (Area%) ([1]; 40°C/75%RH, Day 5): 99.38 Area%
- Purity (Area%) ([1]; 40°C/75%RH, Day 9): 99.33 Area%
- Purity (Area%) ([1]; 60°C, Day 2): 99.55 Area%
- Purity (Area%) ([1]; 60°C, Day 5): 99.43 Area%
- Purity (Area%) ([1]; 60°C, Day 9): 99.55 Area%
- Purity (Area%) ([1]; 80°C, Day 2): 95.20 Area%
- Purity (Area%) ([1]; 80°C, Day 5): 94.65 Area%
- Purity (Area%) ([1]; 80°C, Day 9): 96.80 Area%
- Purity (Area%) ([1]; Starting point (table 25 °C/75%RH / 40°C/75%RH)): 99.72 Area%
- Purity (Area%) ([1]; Starting point (table 60°C / 80°C)): 99.72 Area%
- stability under the high-temperature and high-humidity conditions ([1]; compared with crystal form A of the free state): not as stable as crystal form A of the free state
- Solubility (mg/mL) ([2]; 1,4-Dioxane, room temperature, listed as crystal form B of the hydrochloride): S<1.0 mg/mL
- solubility ([2]; 2-methf, 25 °C, organic solvent or mixture, thermodynamic from solid, room temperature): < 1000 µg/mL
- Solubility (mg/mL) ([2]; DMAc, room temperature, listed as crystal form B of the hydrochloride): S>40.0 mg/mL
- Solubility (mg/mL) ([2]; DMSO, room temperature, listed as crystal form B of the hydrochloride): S>42.0 mg/mL
- Solubility (mg/mL) ([2]; H2O, room temperature, listed as crystal form B of the hydrochloride): S<1.0 mg/mL
- Solubility (mg/mL) ([2]; MTBE, room temperature, listed as crystal form B of the hydrochloride): S<1.0 mg/mL
- Solubility (mg/mL) ([2]; MeOH, room temperature (25±3 °C), listed as crystal form B of the hydrochloride): S>36.0 mg/mL
- Solubility (mg/mL) ([2]; NMP, room temperature, listed as crystal form B of the hydrochloride): S>42.0 mg/mL
- Solubility (mg/mL) ([2]; Toluene, room temperature, listed as crystal form B of the hydrochloride): S<1.0 mg/mL
- solubility [2, 9]: < 1000 µg/mL
- solubility ([2]; acn, 25 °C, organic solvent or mixture, thermodynamic from solid, room temperature): < 1100 µg/mL
- solubility ([2]; acn/h2o (1:1) v/v, room temperature): > 40000 µg/mL
- solubility [2, 10]: < 1100 µg/mL
- solubility ([2]; dcm, 25 °C, organic solvent or mixture, thermodynamic from solid, room temperature): < 1000 µg/mL
- solubility ([2]; dmf/h2o (1:1) v/v, room temperature): 22000 to 44000 µg/mL
- solubility ([2]; etoac, 25 °C, organic solvent or mixture, thermodynamic from solid, room temperature): < 1000 µg/mL
- solubility ([2]; etoh/h2o (1:1) v/v, room temperature): 22000 to 44000 µg/mL
- solubility ([2]; ipa, 25 °C, organic solvent or mixture, thermodynamic from solid, room temperature): < 1100 µg/mL
- solubility ([2]; ipa/h2o (1:1) v/v, room temperature): > 40000 µg/mL
- solubility ([2]; ipac, 25 °C, organic solvent or mixture, thermodynamic from solid, room temperature): < 1000 µg/mL
- solubility ([2]; meoh/h2o (1:1) v/v, room temperature): 11000 to 22000 µg/mL
- solubility ([2]; mibk, 25 °C, organic solvent or mixture, thermodynamic from solid, room temperature): < 1000 µg/mL
- Solubility (mg/mL) ([2]; n-Heptane, room temperature, listed as crystal form B of the hydrochloride): S<1.0 mg/mL
- solubility ([2]; thf, 25 °C, organic solvent or mixture, thermodynamic from solid, room temperature): < 1100 µg/mL
- solubility ([2]; thf/h2o (1:1) v/v, room temperature): 20000 to 40000 µg/mL
- moisture-induced weight gain [3]: less than 0.7%

- bioavailability ([5]; Sprague-Dawley, rat, plasma, 30 mg/kg, SD male rats, PO, analyte parent drug HMS5552): 51.2%
SMILES: CC(C)C[C@@H](C(=O)Nc1ccn(C[C@@H](O)CO)n1)N1CC(Oc2ccccc2Cl)=CC1=O [HMS5552, (S)-2-(4-(2-chlorophenoxy)-2-oxo-2,5-dihydro-1H-pyrrol-1-yl)-N-(1-((R)-2,3-dihydroxypropyl)-1H-pyrazol-3-yl)-4-methylpentanamide, reference compound]
- blood glucose level at 0 min (pre-glucose) (C57BL/6J mice [4]; [11]): generally lower than that of the vehicle control group
- blood glucose values after glucose administration (C57BL/6J mice [4]; HMS5552-40mg/kg group, at 30 min, versus vehicle control group): significantly lower than that of the vehicle control group
- insulin levels at 0 min and 15 min (C57BL/6J mice [6]; each dose group of HMS5552 versus vehicle control group): slightly higher than those in the vehicle control group, without significant difference

SMILES: CC(C)C[C@@H](C(=O)Nc1ccn(C[C@@H](O)COC(=O)c2cccnc2)n1)N1CC(Oc2ccccc2Cl)=CC1=O [Compound A, (R)-3-(3-((S)-2-(4-(2-chlorophenoxy)-2-oxo-2,5-dihydro-1H-pyrrol-1-yl)-4-methylpentanamido)-1H-pyrazol-1-yl)-2-hydroxypropyl nicotinate]
- glucose-lowering effect in mice (C57BL/6J mice [4]; C57BL/6J mice, OGTT): good glucose-lowering effect
- blood glucose level at 0 min (pre-glucose) (C57BL/6J mice [4]; [11]): generally lower than that of the vehicle control group
- blood glucose values after glucose administration (C57BL/6J mice [4]; compound A-49.1 mg/kg group, at 15 min, 30 min, versus vehicle control group): significantly lower than that of the vehicle control group
- blood glucose values after glucose administration (C57BL/6J mice [4]; compound A-49.1 mg/kg group, at 30 min, versus HMS5552-40mg/kg group): significantly lower than that of the HMS5552-40mg/kg group
- AUC0-120min of OGTT blood glucose (C57BL/6J mice [4]; medium and high dose groups of compound A versus corresponding dose groups of HMS5552): significantly lower than those of the corresponding dose groups of HMS5552
- Solubility (mg/mL) ([2]; 1,4-Dioxane, room temperature): S>42.0 mg/mL
- Solubility (mg/mL) ([2]; 2-MeTHF, room temperature): S>42.0 mg/mL
- solubility ([2]; 2-MeTHF/n-Heptane (1:4) v/v, 25 °C, organic solvent or mixture, thermodynamic from solid, 2-MeTHF/n-Heptane (1:4) v/v, room temperature): < 1000 µg/mL
- Solubility (mg/mL) ([2]; ACN, room temperature): S>50.0 mg/mL
- solubility ([2]; Cyclohexane, 25 °C, organic solvent or mixture, thermodynamic from solid, room temperature): < 1100 µg/mL
- solubility ([2]; DCM, 25 °C, organic solvent or mixture, thermodynamic from solid, room temperature): > 44000 µg/mL
- solubility ([2]; DMAc, 25 °C, organic solvent or mixture, thermodynamic from solid, room temperature): > 42000 µg/mL
- solubility ([2]; DMSO, 25 °C, organic solvent or mixture, thermodynamic from solid, room temperature): > 44000 µg/mL
- Solubility (mg/mL) ([2]; EtOAc, room temperature): S>48.0 mg/mL
- solubility ([2]; EtOAc/n-heptane (1:4 v/v), 25 °C, organic solvent or mixture, thermodynamic from solid, EtOAc/n-Heptane (1:4) v/v, room temperature): < 1100 µg/mL
- Solubility (mg/mL) ([2]; EtOH, room temperature): S>46.0 mg/mL
- solubility ([2]; EtOH/H2O (1:2) v/v, 25 °C, aqueous with cosolvent or surfactant or cyclodextrin, thermodynamic from solid, EtOH/H2O (1:2) v/v, room temperature): 2100 to 5300 µg/mL (≈ 3.7 to 9.33 mM)
- solubility ([2]; H2O, 25 °C, water, thermodynamic from solid, room temperature): < 1100 µg/mL
- Solubility (mg/mL) ([2]; IPA, room temperature): S>38.0 mg/mL
- Solubility (mg/mL) ([2]; IPAc, room temperature): S>44.0 mg/mL
- Solubility (mg/mL) ([2]; MIBK, room temperature): S>40.0 mg/mL
- solubility ([2]; MeOH, 25 °C, organic solvent or mixture, thermodynamic from solid, room temperature (25±3 °C)): > 50000 µg/mL
- solubility ([2]; NMP, 25 °C, organic solvent or mixture, thermodynamic from solid, room temperature): > 44000 µg/mL
- solubility ([2]; THF, 25 °C, organic solvent or mixture, thermodynamic from solid, room temperature): > 40000 µg/mL
- solubility ([2]; Toluene/n-Heptane (1:1) v/v, 25 °C, organic solvent or mixture, thermodynamic from solid, Toluene/n-Heptane (1:1) v/v, room temperature): 1000 to 2000 µg/mL (≈ 1.76 to 3.52 mM)
- solubility [2, 9]: > 46000 µg/mL
- solubility ([2]; acetone/H2O (1:2 v/v), 25 °C, aqueous with cosolvent or surfactant or cyclodextrin, thermodynamic from solid, Acetone/H2O (1:2) v/v, room temperature): 5300 to 10500 µg/mL (≈ 9.33 to 18.5 mM)
- solubility [2, 10]: > 48000 µg/mL
- solubility ([2]; n-Heptane, 25 °C, organic solvent or mixture, thermodynamic from solid, room temperature): < 1100 µg/mL
- permeability from A side to B side (Caco-2 cells): low
- permeability from B side to A side (Caco-2 cells): high
- recovery at 2 h, 2 µM [7, 12]: 52.9%
- recovery at 2 h, 10 µM [7, 12]: 37.5%
- recovery at 2 h, 2 µM [7, 13]: 87.1%
- recovery at 2 h, 10 µM [7, 13]: 81.6%
- recovery at 2 h, 30 µM ([7]; Caco-2, pH 7.4, Average recovery rate (%) B→A, Compound A concentration 30.0 µM): 82.2%
- time until completely metabolized and converted into the parent drug HMS5552 [8]: ≤ 5 min
- metabolism in rats by intravenous injection ([5]; rats, intravenous injection): metabolized very rapidly
- insulin level at 0 min (C57BL/6J mice [6]; compound A high-dose group): significantly higher than that of the vehicle control group and the HMS5552 high-dose group
- insulin level at 15 min (C57BL/6J mice [6]; compound A-18.4mg/kg group versus corresponding dose group of HMS5552): significantly higher than that of the corresponding dose group of HMS5552
- insulin level at 15 min (C57BL/6J mice [6]; compound A-18.4mg/kg group versus vehicle control group): significantly higher than that of the vehicle control group
- insulin level at 15 min (C57BL/6J mice [6]; compound A-49.1mg/kg group versus vehicle control group): significantly higher than that of the vehicle control group
